The target in experiment [1] is T1, Long-chain-fatty-acid--AMP ligase FadD28 (Mycobacterium tuberculosis, UniProt P9WQ59).
T1 sequence (P9WQ59 whole entry): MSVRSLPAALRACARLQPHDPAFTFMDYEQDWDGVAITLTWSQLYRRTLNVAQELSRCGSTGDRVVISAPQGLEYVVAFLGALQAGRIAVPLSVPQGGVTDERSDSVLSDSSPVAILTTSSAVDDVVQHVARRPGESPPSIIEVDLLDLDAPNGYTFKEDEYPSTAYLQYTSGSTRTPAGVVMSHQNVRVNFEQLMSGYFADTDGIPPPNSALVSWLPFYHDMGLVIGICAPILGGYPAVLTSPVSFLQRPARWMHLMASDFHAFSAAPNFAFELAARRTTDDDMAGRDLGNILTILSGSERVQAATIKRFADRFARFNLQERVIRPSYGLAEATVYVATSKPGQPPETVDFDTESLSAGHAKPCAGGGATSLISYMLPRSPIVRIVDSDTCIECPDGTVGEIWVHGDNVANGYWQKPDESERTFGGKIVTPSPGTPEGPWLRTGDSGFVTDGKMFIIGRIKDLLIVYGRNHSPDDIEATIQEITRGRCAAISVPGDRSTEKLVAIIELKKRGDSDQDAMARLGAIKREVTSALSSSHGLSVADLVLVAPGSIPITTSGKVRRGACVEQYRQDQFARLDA
Briefly: Fluorescence polarization aasay to screen for inhibitors that compete for the binding of FadD28 to a bisubstrate Measured in Biochemical System Using Plate Reader - 2147-01_Inhibitor_Dose_CherryPick_Activity. Type of experiment: functional, Mycobacterium tuberculosis H37Rv. A general note: Polarisation of emitted light reports the rotation of a fluorescent probe.

Experiment [2] has as its target T2, Calpain-2 catalytic subunit (Sus scrofa, UniProt P43367).
T2 sequence (P43367 whole entry): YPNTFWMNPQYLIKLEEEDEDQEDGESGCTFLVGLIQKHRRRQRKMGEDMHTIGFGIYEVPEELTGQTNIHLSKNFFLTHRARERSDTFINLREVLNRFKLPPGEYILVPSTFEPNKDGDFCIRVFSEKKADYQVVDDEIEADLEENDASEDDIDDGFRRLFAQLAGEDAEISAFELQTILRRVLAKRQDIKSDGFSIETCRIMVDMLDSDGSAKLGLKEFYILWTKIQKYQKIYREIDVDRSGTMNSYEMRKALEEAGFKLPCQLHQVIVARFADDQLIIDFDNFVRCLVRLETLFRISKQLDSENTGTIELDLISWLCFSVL
Description: pig calpain II inhibitor potency, dose response, biochemical, fluorogenic peptide substrate (AID 1420). It is filed as functional.

The nature of experiment [3]: HEp-2 cell cytotoxicity, dose response, cytotoxicity control for RSV inhibitor project, HTS (AID 2410). To be noted: human respiratory syncytial virus. It is filed as functional.
For the next experiment, the target named is Cytochrome P450 3A4 (Homo sapiens, UniProt P08684). To be noted: Potency.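 Further: confirmatory qHTS run detecting inhibitors and substrates of CYP3A4.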
Cytochrome P450 3A4, sequence (P08684 whole entry): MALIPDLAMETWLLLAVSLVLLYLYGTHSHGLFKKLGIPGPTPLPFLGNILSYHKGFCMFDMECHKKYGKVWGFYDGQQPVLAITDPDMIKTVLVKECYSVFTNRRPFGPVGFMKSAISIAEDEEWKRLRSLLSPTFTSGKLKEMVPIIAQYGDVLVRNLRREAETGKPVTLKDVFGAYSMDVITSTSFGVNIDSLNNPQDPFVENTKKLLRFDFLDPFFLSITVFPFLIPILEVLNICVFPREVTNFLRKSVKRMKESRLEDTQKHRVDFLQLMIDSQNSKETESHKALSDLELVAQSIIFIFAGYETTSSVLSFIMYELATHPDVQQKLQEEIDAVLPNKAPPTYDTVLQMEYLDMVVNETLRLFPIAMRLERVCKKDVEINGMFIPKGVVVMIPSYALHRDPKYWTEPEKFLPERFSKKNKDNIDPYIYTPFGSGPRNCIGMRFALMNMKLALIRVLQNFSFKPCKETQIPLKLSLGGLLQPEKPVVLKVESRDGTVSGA
Another experiment deals with Cytochrome P450 2C9 (Homo sapiens, UniProt P11712).
Cytochrome P450 2C9, sequence (P11712 whole entry): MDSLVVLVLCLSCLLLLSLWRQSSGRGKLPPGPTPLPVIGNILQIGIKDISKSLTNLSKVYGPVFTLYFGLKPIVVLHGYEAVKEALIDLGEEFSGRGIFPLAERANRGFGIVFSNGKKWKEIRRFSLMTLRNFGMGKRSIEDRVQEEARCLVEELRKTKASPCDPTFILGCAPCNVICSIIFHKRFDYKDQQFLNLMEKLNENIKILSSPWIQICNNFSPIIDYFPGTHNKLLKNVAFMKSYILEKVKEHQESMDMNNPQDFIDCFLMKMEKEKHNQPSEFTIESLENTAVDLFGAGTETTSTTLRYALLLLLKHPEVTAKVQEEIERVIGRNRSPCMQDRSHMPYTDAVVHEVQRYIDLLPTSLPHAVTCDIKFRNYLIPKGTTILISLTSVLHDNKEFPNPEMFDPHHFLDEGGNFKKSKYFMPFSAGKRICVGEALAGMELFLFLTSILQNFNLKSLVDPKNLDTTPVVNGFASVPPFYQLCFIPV
A short description of experiment [4]: microbe, parasite or virus in culture. Type of experiment: functional. To be noted: Mycobacterium tuberculosis.
The target in a further experiment is T3, Streptokinase A (Streptococcus pyogenes serotype M1, UniProt P10520).
T3 sequence (P10520 whole entry): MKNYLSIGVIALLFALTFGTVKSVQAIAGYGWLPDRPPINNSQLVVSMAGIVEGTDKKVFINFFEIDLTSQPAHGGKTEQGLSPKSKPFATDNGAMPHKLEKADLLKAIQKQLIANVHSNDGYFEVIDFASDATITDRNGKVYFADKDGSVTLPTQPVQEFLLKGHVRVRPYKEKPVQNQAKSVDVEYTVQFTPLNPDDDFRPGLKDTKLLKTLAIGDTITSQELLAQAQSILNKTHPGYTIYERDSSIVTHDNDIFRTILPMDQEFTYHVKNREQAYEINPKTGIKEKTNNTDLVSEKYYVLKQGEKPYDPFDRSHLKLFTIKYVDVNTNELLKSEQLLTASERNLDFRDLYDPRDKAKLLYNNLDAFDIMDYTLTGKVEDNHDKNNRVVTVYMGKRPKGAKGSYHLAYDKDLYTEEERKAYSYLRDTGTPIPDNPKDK
Briefly: S. pyogenes streptokinase expression inhibitors, potency, dose response, plasminogen activation absorbance, OD405 (AID 1914).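 Further: secreted streptokinase activity via plasminogen activation per viability signal from cell pellet.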 Type of experiment: functional, Streptococcus pyogenes M1 GAS.

Experiment [5] concerns Streptococcus sp. 'group A'. Description: growth inhibition of control SK(-) GAS strain, dose response, counter-screen for streptokinase expression inhibitor project, luminescence, kanamycin, BacTiterGlo, confirmation (AID 1900). Type of experiment: functional, organism-based. On the technique in general: A counterscreen serves to expose hits that act by an unwanted route or on another target.

The next experiment relates to Streptococcus. Briefly: Group A Streptococcus viability loss, dose response, counter-screen for streptokinase expression inhibitor project, luminescence, BacTiterGlo (AID 1915).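 Further: potency for reduction of bacterial viability or growth.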 It is filed as functional, organism-based.
The target in experiment [6] is Eukaryotic translation initiation factor 4E (Mus musculus, UniProt P63073). Briefly: eIF4E–eIF4G protein interaction inhibitors, dose response, biochemical, TR-FRET (AID 855).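 Further: potency for disrupting eIF4E binding to eIF4GI seen as loss of FRET.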 Type of experiment: functional. A general note: Time-resolved FRET reads energy transfer from a long-lived donor to a nearby acceptor.
Eukaryotic translation initiation factor 4E, sequence (P63073 whole entry): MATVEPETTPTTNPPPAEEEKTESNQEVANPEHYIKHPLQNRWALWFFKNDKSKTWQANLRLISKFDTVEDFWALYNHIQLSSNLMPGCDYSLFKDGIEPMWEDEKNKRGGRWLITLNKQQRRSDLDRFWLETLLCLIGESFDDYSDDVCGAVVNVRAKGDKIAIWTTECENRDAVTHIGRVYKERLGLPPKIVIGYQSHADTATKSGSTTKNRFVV
The target in a further experiment is Genome polyprotein (dengue virus type 2, UniProt P29990). Briefly: Dengue-2 NS5 methyltransferase inhibitors, primary screen, biochemical, confirmation dose response (AID 588689). Type of experiment: functional.
Genome polyprotein, sequence (P29990 2492-3391 limits assumed): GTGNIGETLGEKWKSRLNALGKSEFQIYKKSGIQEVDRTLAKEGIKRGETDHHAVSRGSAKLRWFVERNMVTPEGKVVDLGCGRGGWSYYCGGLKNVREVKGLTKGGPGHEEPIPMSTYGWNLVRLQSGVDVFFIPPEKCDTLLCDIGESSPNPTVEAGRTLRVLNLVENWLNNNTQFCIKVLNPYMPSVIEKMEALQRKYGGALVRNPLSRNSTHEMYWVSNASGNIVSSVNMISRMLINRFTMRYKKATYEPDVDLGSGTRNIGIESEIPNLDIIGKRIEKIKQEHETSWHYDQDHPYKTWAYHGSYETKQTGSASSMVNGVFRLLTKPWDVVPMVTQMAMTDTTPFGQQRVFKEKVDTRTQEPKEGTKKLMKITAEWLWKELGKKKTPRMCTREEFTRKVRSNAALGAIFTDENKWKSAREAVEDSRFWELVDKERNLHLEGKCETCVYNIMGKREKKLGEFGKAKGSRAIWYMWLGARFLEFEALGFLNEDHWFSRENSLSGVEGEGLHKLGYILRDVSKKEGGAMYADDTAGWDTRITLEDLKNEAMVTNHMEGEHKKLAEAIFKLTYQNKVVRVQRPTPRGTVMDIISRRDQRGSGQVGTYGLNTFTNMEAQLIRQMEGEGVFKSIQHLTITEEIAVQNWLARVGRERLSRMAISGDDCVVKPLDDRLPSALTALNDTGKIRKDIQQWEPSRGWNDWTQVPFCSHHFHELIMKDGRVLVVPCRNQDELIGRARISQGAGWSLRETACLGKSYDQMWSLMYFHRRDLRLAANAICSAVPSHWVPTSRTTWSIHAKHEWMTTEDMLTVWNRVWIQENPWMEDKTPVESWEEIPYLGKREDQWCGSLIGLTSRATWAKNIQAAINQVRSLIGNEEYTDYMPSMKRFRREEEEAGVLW
A short description of experiment [7]: Luminescence Cell-Based Dose Retest to Confirm Inhibitors of Cancer Stem Cells. [Related pubchem assays (depositor defined):AID2717, AID2721]. It is filed as functional. To be noted: Homo sapiens.
For experiment [8], the target named is T4, Endoribonuclease toxin MazF (Escherichia coli K-12, UniProt P0AE70).
T4 sequence (P0AE70 whole entry): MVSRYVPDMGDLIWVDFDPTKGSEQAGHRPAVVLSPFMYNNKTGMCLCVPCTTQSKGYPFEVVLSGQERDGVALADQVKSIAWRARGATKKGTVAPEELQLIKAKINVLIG
Briefly: MazF toxin RNase activators, dose response, biochemical, fluorescence, single-stranded RNA substrate, uHTS hits (AID 588481). Type of experiment: functional.

The target of experiment [9] is T5, Corticotropin-releasing factor receptor 2/Corticotropin-releasing factor-binding protein (Homo sapiens, UniProt P24387+Q13324).
T5 sequence (Q13324 whole entry): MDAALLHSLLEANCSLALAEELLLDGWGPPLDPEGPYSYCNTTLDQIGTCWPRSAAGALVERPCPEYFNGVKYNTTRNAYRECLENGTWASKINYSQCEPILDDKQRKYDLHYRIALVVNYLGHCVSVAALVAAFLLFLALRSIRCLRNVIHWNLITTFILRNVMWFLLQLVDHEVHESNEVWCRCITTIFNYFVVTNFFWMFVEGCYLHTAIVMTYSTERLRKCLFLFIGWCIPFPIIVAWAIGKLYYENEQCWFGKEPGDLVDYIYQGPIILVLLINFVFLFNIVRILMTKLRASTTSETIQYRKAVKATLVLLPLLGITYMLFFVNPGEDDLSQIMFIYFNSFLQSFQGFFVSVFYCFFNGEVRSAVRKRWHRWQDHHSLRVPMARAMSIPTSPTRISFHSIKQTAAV
T5 sequence (P24387 whole entry): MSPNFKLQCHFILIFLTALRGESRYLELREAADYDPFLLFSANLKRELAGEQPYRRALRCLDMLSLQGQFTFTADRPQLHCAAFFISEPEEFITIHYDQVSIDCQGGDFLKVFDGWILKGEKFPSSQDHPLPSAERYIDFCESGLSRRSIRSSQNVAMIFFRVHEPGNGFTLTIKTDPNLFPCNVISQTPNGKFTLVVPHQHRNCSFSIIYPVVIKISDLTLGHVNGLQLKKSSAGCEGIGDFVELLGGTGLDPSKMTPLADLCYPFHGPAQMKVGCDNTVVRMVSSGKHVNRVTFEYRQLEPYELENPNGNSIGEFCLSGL
Description: activators of CRF receptor 2 with binding protein – uHTS hits, confirmation (AID 602473). It is filed as functional. To be noted: read-out: EC50_Mean.

Experiment [10] addresses T4, Endoribonuclease toxin MazF. Briefly: fluorescent RNA oligo signal without MazF, dose response, counter-screen for MazEF activator project, biochemical, fluorescence, single-stranded RNase substrate (AID 588502). It is filed as functional.
For experiment [11], the target named is FAD-linked sulfhydryl oxidase ALR (Homo sapiens, UniProt P55789). Description: inhibitors of human ALR sulfhydryl oxidase, dose response, biochemical, H2O2 detection, luminescence, cherry-pick (AID 493248).
FAD-linked sulfhydryl oxidase ALR, sequence (P55789 whole entry): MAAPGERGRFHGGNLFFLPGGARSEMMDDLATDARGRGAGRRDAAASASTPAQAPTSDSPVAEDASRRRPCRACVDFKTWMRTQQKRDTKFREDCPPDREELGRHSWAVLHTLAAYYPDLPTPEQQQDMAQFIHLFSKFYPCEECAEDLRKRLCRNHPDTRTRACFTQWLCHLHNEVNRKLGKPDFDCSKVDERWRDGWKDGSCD

Calls of active or inactive are those of the source. Bounds are passed on as bounds.

The term AC50 denotes the midpoint of the concentration-response curve, whichever way the signal moves. For `COc1cc(/C=C2\SC(=S)N(CC(=O)Nc3cccnc3)C2=O)cc(OC)c1OC`, the concentration at half-maximal activity (AC50) in [1] was 72.2 µM (active).

One may read the IC50 as the concentration that gives 50% inhibition. With `Cc1ccccc1NC(=O)COC(=O)CCc1ccccc1`, the IC50 in [2] is recorded as 20.8 µM (not active).

As to `O=S(=O)(c1ccccc1Cl)N1CCCC(c2nc(O)c3nnn(Cc4ccc5c(c4)OCCO5)c3n2)C1` (stereo unspecified), in experiment [3], the CC50 was 16.6 µM (active). Further, in “cells”, the IC50 was 10.1 µM (active).

For `CC(C)CNS(=O)(=O)c1ccc(CCC(=O)Nc2cc(Cl)ccc2Oc2ccccc2)cc1`, the IC50 in experiment [2] is 5.08 µM (not active).

Turning to `COc1cc(NC2c3ncccc3C(=O)N2Cc2ccco2)cc(OC)c1OC` (stereo unspecified), in the experiment “cells”, the concentration for half-maximal inhibition (IC50) was 30.1 µM (active).

Regarding `O=C1c2cccnc2C(Nc2ccccc2)N1Cc1ccco1` (stereo unspecified), the IC50 in “cells” is 15.1 µM (active).

Regarding `CC1=C(C(=O)OCC(C)C)C23C(=O)c4ccccc4C2(O1)OC(N)=C3C#N` (stereo unspecified), the IC50 in [2] is listed as > 50 µM (not active).

Take `O=C(CNC(=O)c1ccco1)N=Nc1c(O)[nH]c2ccc([N+](=O)[O-])cc12`: the half-inhibitory concentration (IC50) in “cells” is 20.6 µM (active).

For the compound `Cc1ccc(S(=O)(=O)NCC(=O)Nc2ccc3c(c2)OCCO3)cc1`, the AC50 in experiment [1] was > 100 µM (inactive).

`COC1(C#CC2C=CC(OC(C)=O)C(COC(C)=O)O2)CCCCC1` (stereo unspecified): the AC50 at Cytochrome P450 3A4 was 3.98 µM (inconclusive).

`NS(=O)(=O)c1ccc(NC(=O)COc2ccc(C(=O)c3ccc(F)cc3)cc2)cc1`: the AC50 in experiment [1] was > 100 µM (inactive).

For `CN(CCOc1ccc(C[C@H](Nc2ccccc2C(=O)c2ccccc2)C(=O)O)cc1)c1ccccn1`, the AC50 at Cytochrome P450 2C9 is 31.6 µM (inconclusive); on Cytochrome P450 3A4, 3.16 µM (inconclusive).

Take `C=CCc1ccc2c(c1)OCO2` [SAFROLE]: the AC50 at Cytochrome P450 3A4 is 3.16 µM (inconclusive).

In the case of `COC(=O)C1(C)C=CC2(CCCCC2)N1C(=O)c1ccccc1` (stereo unspecified), the concentration at half-maximal activity (AC50) on Cytochrome P450 3A4 is 20 µM (inconclusive).

With `CN1C(=O)/C(=C/c2ccccc2Cl)Sc2ccc(C(=O)NCc3cccnc3)cc21`, the CC50 in [4] is > 40 µM (active). Besides, the values for the EC50 (on Streptokinase A; in [5]; in the experiment with Streptococcus) were > 150 µM (not active), 4.4 µM (active) and 16.1 µM (active), respectively. Also, the IC50 in [2] is recorded as 5.27 µM (not active).

As for `Cc1cccc(-n2c(=O)c3c4c(sc3n3c(=S)[nH]nc23)CCC4)c1`, in experiment [6], the IC50 was 50 µM (inactive).

With `C/C(N)=C(/C#N)C(=O)COC(=O)CNS(=O)(=O)c1ccc2ccccc2c1`, the IC50 in the experiment “cells” is 11.8 µM (active).

In the case of `COc1cccc(NC(=O)COc2ccc(N3CC(C(=O)NCC(C)C)CC3=O)cc2)c1` (stereo unspecified), in experiment [6], the IC50 is > 64 µM (inactive).

For the compound `CC(=O)Nc1ccc(S(=O)(=O)Nc2cccc3[nH]ncc23)cc1`, in experiment [2], the IC50 is on record as > 50 µM (not active).

Consider `CN1c2ccccc2C(C)(C)C12CC(c1cccc(S(=O)(=O)N3CCCC3)c1)=NO2` (stereo unspecified), for which the CC50 in experiment [3] is 17.7 µM (active). In addition, the IC50 in “cells” is 18.3 µM (active).

Take `Cc1ccc(F)c(NC(=O)/C(C#N)=C(\O)c2ccc(C(C)(C)C)cc2)c1`: the results for the EC50 (on Streptokinase A; in experiment [5]; in the experiment on Streptococcus) were > 150 µM (not active), 16.7 µM (active) and > 150 µM (not active), respectively. Further, at Genome polyprotein, the IC50 was 32.6 µM (active). Besides, the AC50 in [7] was 1.96 µM (active); in experiment [1], > 100 µM (inactive).

Turning to `CCc1ccc(C(=O)NNC(=O)OC)cc1`, the IC50 in experiment [6] was 50 µM (inactive).

As for `CCOc1ccc(N2C(=O)NC(=O)/C(=C\c3c[nH]c4ccccc34)C2=O)cc1`, the EC50 in experiment [8] was > 99 µM (inactive); in [9], 15.4 µM (active); in experiment [10], 16.3 µM (active).

Take `COc1cc(O)c2c(=O)c(O)c(-c3ccc(O)c(O)c3)oc2c1` [RHAMNETIN]: the AC50 on Cytochrome P450 3A4 was 39.8 µM (inconclusive).

On to `Cc1nn(Cc2cccc(C(=O)NC(C)c3ccc(C(C)(C)C)cc3)c2)c(C)c1[N+](=O)[O-]` (stereo unspecified), for which the IC50 in experiment [2] is reported as 6.98 µM (not active).

As for `COc1ccc(-c2csc(Nc3ccc(S(=O)(=O)Nc4cc(C)on4)cc3)n2)cc1`, the AC50 was 12.9 µM (active) in experiment [11] and 67.4 µM (active) in experiment [1].

(Values after ChEMBL document CHEMBL1201862, “PubChem BioAssay data set” (2004).)
